The text below walks through data of ChEMBL document CHEMBL3621113, “Strategies for the Discovery of Target-Specific or Isoform-Selective Modulators” (J Med Chem, 2015).

Structures are written as SMILES.

Test [1] has as its target T1, Amine oxidase [flavin-containing] A (Homo sapiens, UniProt P21397).
T1 sequence (P21397 whole entry): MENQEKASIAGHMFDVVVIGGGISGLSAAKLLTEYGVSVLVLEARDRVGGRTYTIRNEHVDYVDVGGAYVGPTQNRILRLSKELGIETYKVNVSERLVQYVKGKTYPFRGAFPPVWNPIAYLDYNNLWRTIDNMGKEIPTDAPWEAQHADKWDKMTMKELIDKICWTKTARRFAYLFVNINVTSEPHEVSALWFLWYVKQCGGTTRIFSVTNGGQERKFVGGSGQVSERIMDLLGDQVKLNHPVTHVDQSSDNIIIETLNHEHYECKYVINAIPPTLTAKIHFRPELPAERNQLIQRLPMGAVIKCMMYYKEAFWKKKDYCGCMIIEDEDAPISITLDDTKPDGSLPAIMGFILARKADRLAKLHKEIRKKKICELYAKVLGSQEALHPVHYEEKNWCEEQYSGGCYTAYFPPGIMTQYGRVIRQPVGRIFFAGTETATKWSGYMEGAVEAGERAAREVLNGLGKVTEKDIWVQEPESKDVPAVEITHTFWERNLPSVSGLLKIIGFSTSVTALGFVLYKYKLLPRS
Description: Inhibition of human MAO-A using (4S)-4,5-dihydro-2-(6-hydroxybenzothiazolyl)-4-thiazolecarboxylic acid as substrate after 60 mins by MAO-Glo assay

The target of test [2] is T2, Amine oxidase [flavin-containing] B (Homo sapiens, UniProt P27338).
T2 sequence (P27338 whole entry): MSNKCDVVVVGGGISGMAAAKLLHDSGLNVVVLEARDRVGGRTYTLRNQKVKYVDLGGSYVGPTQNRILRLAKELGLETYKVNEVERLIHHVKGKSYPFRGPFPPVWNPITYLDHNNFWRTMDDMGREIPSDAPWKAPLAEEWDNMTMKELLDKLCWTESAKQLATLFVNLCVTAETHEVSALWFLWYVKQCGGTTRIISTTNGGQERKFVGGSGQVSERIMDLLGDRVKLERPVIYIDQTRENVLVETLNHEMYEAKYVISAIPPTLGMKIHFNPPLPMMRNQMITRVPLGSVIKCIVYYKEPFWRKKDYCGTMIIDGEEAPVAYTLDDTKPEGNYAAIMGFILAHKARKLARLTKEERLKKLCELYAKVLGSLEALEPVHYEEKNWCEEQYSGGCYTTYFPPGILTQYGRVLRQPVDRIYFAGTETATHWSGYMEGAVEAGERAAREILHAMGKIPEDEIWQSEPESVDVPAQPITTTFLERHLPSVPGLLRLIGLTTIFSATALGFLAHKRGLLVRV
Description: Inhibition of human MAO-B using (4S)-4,5-dihydro-2-(6-hydroxybenzothiazolyl)-4-thiazolecarboxylic acid as substrate after 60 mins by MAO-Glo assay

The target of test [3] is T1, Amine oxidase [flavin-containing] A. As to the kind of experiment: Inhibition of MAO-A (unknown origin).
Test [4] has as its target Phosphatidylinositol 4,5-bisphosphate 3-kinase catalytic subunit gamma isoform (Homo sapiens, UniProt P48736). As to the kind of experiment: Inhibition of recombinant human PI3Kgamma by TR-FRET analysis. In general terms: TR-FRET usually uses a lanthanide donor and a delayed reading to cut background.
In test [5] the target is Serine/threonine-protein kinase mTOR (Homo sapiens, UniProt P42345). As to the kind of experiment: Inhibition of recombinant human mTOR by TR-FRET analysis.
Test [6] addresses Phosphatidylinositol 4,5-bisphosphate 3-kinase catalytic subunit beta isoform (Homo sapiens, UniProt P42338). As to the kind of experiment: Inhibition of recombinant human PI3Kbeta by TR-FRET analysis.
Test [7] concerns the target T3, Phosphatidylinositol 4,5-bisphosphate 3-kinase catalytic subunit delta isoform (Homo sapiens, UniProt O00329).
T3 sequence (O00329 whole entry): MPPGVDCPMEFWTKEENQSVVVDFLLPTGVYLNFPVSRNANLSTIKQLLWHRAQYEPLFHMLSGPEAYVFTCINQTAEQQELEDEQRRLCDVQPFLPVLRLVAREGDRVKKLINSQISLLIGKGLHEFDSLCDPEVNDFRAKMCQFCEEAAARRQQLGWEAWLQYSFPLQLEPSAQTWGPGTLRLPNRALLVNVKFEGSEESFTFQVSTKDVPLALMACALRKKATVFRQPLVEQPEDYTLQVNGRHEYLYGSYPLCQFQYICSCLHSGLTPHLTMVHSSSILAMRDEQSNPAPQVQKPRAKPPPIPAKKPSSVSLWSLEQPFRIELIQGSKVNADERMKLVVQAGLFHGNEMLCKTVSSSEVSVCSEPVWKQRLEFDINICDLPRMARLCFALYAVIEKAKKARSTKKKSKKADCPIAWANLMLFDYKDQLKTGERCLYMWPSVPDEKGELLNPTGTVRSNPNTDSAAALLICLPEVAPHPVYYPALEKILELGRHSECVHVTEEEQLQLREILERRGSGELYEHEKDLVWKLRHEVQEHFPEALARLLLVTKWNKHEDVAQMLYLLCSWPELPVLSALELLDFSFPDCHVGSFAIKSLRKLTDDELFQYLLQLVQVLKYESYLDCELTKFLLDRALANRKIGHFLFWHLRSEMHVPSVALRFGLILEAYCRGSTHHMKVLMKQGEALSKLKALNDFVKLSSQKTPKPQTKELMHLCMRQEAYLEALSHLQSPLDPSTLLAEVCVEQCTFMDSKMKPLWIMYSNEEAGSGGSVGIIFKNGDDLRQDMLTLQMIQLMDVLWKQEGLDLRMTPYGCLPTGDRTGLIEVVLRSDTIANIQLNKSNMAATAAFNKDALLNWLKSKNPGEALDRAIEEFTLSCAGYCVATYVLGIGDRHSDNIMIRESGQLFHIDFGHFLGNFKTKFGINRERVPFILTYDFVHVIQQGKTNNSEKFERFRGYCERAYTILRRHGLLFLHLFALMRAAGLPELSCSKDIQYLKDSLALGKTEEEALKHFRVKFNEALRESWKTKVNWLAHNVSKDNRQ
Put plainly: Inhibition of recombinant human PI3Kdelta by TR-FRET analysis.

In another test the target is T4, Histone deacetylase 8 (Homo sapiens, UniProt Q9BY41).
T4 sequence (Q9BY41 whole entry): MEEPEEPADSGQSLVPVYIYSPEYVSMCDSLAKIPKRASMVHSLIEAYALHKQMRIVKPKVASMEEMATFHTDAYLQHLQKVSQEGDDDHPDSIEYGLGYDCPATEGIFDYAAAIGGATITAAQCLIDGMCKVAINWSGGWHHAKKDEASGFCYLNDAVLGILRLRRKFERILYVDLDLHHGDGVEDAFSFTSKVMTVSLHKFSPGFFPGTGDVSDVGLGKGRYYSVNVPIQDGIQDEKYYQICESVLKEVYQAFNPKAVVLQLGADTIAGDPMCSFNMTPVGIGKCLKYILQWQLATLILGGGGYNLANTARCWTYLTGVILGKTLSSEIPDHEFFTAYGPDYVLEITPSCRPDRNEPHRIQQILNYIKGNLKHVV
Put plainly: Inhibition of HDAC8 in human HeLa nuclear extracts by fluorometric assay.

For test [8], the target named is T5, Protein deacetylase HDAC6 (Homo sapiens, UniProt Q9UBN7).
T5 sequence (Q9UBN7 whole entry): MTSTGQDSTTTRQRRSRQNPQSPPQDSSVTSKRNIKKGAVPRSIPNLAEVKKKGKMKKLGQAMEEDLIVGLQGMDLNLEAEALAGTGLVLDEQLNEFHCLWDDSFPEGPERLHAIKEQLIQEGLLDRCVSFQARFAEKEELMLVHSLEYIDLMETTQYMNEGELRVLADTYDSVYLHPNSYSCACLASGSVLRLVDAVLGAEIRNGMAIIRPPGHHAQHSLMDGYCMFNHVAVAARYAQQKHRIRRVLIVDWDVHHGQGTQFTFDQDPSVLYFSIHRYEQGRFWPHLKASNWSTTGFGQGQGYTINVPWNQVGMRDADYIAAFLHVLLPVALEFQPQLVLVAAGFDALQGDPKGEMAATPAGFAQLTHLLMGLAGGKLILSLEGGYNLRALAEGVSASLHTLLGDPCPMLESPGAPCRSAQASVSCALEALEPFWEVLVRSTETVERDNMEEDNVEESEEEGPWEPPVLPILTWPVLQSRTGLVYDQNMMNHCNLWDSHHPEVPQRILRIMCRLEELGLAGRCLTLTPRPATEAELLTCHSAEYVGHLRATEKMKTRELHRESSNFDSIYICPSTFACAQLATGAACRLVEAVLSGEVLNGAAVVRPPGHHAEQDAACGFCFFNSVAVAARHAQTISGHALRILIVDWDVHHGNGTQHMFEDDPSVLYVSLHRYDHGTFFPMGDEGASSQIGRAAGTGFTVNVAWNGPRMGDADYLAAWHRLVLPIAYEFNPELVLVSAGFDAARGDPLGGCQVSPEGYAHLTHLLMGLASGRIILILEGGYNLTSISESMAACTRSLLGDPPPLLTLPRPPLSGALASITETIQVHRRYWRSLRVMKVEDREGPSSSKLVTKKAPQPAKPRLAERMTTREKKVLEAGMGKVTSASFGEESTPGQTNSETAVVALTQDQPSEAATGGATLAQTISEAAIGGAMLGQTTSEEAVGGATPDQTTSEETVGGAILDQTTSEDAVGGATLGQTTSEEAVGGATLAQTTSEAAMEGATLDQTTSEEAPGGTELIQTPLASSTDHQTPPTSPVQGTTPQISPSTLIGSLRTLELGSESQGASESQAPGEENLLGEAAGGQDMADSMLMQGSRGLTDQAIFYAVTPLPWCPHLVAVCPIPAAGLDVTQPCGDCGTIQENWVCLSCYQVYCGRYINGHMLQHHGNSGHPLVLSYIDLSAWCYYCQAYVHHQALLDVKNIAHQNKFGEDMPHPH
As to the kind of experiment: Inhibition of HDAC6 in human HeLa nuclear extracts by fluorometric assay.

Another test concerns the target Histone deacetylase 5 (Homo sapiens, UniProt Q9UQL6).
The target in the next test is Histone deacetylase 4 (Homo sapiens, UniProt P56524). As to the kind of experiment: Inhibition of HDAC4 in human HeLa nuclear extracts by fluorometric assay.
Test [9] addresses Non-receptor tyrosine-protein kinase TYK2 (Homo sapiens, UniProt P29597). As to the kind of experiment: Inhibition of TYK2 (unknown origin) after 20 mins by radiometric analysis in presence of [gamma33P]-ATP.
In test [10] the target is T6, Tyrosine-protein kinase JAK3 (Homo sapiens, UniProt P52333).
T6 sequence (P52333 whole entry): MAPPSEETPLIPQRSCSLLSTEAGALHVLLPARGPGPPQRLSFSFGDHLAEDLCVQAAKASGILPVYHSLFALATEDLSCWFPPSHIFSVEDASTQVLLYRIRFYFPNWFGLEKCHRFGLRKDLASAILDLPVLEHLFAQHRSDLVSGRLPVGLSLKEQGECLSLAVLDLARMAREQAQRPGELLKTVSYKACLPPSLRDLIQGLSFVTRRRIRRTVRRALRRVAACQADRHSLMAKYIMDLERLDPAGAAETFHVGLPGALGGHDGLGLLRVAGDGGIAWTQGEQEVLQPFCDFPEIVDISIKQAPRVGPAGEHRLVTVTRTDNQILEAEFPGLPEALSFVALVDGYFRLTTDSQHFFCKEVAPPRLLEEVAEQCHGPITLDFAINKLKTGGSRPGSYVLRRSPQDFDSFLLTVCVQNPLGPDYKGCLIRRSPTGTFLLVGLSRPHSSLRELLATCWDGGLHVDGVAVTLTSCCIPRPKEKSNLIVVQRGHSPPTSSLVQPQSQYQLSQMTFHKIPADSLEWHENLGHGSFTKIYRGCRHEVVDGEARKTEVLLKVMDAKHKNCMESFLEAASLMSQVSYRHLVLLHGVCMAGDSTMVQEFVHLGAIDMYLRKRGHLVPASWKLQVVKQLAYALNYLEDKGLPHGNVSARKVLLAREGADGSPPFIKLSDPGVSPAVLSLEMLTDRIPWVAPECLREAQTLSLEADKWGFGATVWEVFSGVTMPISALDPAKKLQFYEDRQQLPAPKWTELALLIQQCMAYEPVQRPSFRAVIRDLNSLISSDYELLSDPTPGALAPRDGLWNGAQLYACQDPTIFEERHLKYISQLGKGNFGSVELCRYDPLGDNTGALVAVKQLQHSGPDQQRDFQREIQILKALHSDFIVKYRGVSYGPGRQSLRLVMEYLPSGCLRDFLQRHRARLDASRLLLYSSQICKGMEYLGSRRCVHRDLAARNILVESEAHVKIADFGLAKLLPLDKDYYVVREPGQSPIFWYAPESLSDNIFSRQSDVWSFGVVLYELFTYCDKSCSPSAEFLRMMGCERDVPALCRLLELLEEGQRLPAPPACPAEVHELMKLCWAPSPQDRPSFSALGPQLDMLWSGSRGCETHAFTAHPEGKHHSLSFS
As to the kind of experiment: Inhibition of JAK3 (unknown origin) after 20 mins by radiometric analysis in presence of [gamma33P]-ATP.

Test [11] has as its target Tyrosine-protein kinase JAK1 (Homo sapiens, UniProt P23458). As to the kind of experiment: Inhibition of JAK1 (unknown origin) after 20 mins by radiometric analysis in presence of [gamma33P]-ATP.
The target in test [12] is Tyrosine-protein kinase JAK2 (Homo sapiens, UniProt O60674). As to the kind of experiment: Inhibition of JAK2 (unknown origin) after 20 mins by radiometric analysis in presence of [gamma33P]-ATP.

Histone deacetylase 5, sequence (Q9UQL6 whole entry): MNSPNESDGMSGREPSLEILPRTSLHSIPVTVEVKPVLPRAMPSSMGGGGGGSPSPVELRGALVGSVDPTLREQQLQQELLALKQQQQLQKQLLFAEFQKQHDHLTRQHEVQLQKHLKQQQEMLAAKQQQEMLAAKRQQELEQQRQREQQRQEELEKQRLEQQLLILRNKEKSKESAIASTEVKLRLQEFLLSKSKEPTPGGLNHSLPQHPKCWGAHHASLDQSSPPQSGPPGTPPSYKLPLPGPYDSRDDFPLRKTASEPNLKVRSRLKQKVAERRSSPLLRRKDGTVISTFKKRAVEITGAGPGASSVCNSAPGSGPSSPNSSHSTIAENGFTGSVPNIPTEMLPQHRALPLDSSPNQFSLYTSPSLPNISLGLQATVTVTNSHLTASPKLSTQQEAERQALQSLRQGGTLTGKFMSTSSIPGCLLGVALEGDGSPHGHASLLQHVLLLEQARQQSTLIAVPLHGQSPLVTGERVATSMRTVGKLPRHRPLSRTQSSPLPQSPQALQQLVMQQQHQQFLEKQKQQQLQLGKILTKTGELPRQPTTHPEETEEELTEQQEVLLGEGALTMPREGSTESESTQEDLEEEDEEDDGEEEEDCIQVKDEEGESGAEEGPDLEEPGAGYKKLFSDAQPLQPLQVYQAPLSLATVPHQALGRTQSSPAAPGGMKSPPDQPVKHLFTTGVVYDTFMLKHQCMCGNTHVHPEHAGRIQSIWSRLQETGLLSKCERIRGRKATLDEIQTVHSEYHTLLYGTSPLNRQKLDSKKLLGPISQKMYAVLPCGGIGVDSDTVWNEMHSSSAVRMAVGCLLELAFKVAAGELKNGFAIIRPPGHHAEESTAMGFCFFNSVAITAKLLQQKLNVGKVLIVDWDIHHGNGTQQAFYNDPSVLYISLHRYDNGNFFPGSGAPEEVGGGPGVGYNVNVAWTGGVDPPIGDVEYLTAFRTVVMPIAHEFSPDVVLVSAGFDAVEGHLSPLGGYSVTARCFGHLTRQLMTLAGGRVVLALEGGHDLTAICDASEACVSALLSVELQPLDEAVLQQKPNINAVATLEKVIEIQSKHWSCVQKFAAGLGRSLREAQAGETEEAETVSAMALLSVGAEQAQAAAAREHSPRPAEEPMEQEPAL
Non-receptor tyrosine-protein kinase TYK2, sequence (P29597 whole entry): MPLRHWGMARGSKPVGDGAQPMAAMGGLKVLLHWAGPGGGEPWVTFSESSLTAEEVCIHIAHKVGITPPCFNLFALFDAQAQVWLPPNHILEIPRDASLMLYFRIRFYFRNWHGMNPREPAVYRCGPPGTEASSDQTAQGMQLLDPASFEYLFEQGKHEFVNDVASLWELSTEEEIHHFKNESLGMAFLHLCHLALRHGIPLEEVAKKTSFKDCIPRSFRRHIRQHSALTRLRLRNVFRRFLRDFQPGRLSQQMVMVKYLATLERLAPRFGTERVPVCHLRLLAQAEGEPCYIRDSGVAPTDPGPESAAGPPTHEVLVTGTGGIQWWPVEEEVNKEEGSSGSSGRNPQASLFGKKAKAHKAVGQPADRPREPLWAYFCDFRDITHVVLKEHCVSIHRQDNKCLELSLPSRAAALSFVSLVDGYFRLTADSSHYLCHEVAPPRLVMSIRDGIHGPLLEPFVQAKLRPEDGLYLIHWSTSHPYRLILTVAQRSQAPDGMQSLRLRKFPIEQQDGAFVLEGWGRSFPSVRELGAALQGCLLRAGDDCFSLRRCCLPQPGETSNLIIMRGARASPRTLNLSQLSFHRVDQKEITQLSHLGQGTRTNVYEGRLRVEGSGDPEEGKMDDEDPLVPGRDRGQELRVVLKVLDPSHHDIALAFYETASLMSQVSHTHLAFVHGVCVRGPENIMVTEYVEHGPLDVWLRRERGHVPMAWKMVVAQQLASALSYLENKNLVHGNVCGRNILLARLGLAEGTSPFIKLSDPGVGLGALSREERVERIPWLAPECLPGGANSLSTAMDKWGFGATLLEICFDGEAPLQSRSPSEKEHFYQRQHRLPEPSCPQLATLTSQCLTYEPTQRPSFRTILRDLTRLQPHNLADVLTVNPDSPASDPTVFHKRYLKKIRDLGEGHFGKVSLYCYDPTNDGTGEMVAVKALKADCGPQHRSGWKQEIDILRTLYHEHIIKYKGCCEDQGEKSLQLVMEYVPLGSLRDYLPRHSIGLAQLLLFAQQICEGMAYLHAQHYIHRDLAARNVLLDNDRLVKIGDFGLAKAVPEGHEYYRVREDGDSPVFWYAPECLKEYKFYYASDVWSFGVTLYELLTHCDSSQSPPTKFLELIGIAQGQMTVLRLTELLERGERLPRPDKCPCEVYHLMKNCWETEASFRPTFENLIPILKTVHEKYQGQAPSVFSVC
Phosphatidylinositol 4,5-bisphosphate 3-kinase catalytic subunit beta isoform, sequence (P42338 whole entry, canonical isoform): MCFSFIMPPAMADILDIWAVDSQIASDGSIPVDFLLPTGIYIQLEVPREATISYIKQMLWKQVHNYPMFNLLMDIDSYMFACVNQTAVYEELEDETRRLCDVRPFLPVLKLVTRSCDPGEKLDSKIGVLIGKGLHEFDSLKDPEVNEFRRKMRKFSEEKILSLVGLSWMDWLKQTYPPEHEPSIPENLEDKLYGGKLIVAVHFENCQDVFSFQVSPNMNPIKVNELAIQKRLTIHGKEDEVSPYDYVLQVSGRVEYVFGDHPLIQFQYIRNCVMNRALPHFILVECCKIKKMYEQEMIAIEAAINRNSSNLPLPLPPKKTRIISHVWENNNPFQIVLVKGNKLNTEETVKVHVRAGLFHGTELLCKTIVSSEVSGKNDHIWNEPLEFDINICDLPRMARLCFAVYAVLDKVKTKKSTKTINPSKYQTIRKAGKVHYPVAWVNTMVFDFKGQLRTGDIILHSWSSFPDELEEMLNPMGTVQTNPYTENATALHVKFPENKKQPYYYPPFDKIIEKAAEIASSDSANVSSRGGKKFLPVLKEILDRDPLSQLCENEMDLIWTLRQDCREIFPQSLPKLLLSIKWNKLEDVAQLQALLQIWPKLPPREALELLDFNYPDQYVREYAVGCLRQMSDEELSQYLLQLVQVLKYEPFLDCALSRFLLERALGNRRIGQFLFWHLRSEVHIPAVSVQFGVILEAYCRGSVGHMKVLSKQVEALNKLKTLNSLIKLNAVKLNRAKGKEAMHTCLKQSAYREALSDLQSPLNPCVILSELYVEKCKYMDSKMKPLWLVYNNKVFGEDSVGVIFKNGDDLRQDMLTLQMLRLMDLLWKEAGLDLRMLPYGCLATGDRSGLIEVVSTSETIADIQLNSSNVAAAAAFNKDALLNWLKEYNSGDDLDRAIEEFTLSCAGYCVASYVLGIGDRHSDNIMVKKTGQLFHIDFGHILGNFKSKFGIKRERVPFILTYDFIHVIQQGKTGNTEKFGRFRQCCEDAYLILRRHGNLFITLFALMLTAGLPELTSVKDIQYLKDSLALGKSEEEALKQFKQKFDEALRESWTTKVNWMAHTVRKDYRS
Tyrosine-protein kinase JAK1, sequence (P23458 whole entry): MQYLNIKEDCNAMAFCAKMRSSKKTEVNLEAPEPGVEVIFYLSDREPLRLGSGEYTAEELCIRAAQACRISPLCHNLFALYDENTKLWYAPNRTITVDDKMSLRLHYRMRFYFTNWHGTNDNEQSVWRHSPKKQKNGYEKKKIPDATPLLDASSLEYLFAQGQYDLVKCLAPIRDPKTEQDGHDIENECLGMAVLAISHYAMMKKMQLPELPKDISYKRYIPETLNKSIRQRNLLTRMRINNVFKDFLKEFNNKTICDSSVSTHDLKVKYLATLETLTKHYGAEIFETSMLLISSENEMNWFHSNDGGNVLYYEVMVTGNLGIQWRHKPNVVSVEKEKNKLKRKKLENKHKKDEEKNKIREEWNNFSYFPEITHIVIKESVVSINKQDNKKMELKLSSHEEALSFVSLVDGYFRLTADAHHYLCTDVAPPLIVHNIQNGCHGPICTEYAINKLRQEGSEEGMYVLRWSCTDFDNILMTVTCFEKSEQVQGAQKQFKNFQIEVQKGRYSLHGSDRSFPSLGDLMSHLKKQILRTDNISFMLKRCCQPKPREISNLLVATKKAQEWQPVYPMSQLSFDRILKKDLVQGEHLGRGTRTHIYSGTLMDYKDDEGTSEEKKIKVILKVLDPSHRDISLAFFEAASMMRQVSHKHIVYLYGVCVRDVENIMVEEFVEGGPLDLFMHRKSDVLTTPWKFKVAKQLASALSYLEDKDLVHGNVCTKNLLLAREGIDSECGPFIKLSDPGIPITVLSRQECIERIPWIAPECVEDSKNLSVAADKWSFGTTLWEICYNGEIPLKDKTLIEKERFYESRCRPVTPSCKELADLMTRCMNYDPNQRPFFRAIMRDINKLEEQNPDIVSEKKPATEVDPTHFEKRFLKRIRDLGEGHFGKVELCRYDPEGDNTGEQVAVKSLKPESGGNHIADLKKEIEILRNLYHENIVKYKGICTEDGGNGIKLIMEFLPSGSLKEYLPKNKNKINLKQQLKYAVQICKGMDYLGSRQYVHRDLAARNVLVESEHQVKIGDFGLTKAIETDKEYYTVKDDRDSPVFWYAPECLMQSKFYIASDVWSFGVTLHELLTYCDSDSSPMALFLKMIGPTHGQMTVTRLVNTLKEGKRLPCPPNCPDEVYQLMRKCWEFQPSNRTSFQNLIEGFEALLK
Description for Histone deacetylase 5: Inhibition of HDAC5 in human HeLa nuclear extracts by fluorometric assay

Turning to `N[C@@H]1C[C@H]1c1ccc(OCC[C@H](NC(=O)c2ccccc2)C(=O)NCc2ccccc2)cc1`, the IC50 in [1] was 290 µM; in test [2], more than 1000 µM.

On to `NC1CC1c1cccc(OCC[C@H](NC(=O)c2ccccc2)C(=O)NCc2ccccc2)c1` (stereo partly drawn), for which the IC50 in test [1] stood at 230 µM; in test [2], 500 µM.

In the case of `O=C(N[C@@H](CCCCNC1CC1c1ccccc1)C(=O)NCc1ccccc1)c1ccccc1` (stereo partly drawn), the IC50 in test [3] is more than 25 µM.

As to `C[C@@H]1COCCN1c1cc(=O)n2c(n1)N(Cc1cncc(Cl)c1)[C@H](C(F)(F)F)CC2`, the IC50 in test [4], in [5], in [6] and in test [7] was more than 10 µM throughout.

Consider `Nc1ccccc1NC(=O)c1ccc(-c2cn(CCc3ccsc3)nn2)cc1`, for which the IC50 (at Histone deacetylase 8; in test [8]; against Histone deacetylase 5; against Histone deacetylase 4) was more than 100 µM throughout.

For the compound `Nc1ccccc1NC(=O)c1ccc(-c2cn(CCc3cccc([N+](=O)[O-])c3)nn2)s1`, the half-inhibitory concentration (IC50) against Histone deacetylase 5 is more than 100 µM.

As to `c1nc(-c2cn(CC3CO3)nn2)c2cc[nH]c2n1` (stereo not drawn), the IC50 is 5.62 µM in [9], 0.035 µM in [10], 2.73 µM in test [11] and 2.45 µM in [12].

In general, IC50 refers to the midpoint of a concentration-inhibition curve.
